Laboratory results reported in patent US5143920A, “Substituted 4-aminoquinoline derivatives as gastric secretion inhibitors” (SmithKline Beckman Intercredit B.V., priority 1988, dated 1992).
pIC50: −log10 of the molar value.

Biological target: T1, H^+ K^+ ATPase (Sus scrofa, UniProt P19156)
T1 construct: Lyophilised gastric vesicles were prepared from pig fundic mucosa; from tissue; host or cells: pig fundic mucosa (lyophilised gastric vesicles)
Experiment: K^+ -stimulated ATPase activity in lyophilised gastric vesicles (H^+ K^+ ATPase Activity)
Assay type: biochemical
Settings: inhibition of K^+ -stimulated ATPase activity, lyophilised gastric vesicles from pig fundic mucosa, 37° C., pH 7.0, 1 mM KCl, 2 mM Na2 ATP, 30 minutes
Method: The effects of a single high concentration ([…]) of a compound of structure (I) on K^+ -stimulated ATPase activity in lyophilised gastric vesicles was determined. Preferred compounds of structure (I) were also tested over a range of concentrations to determine IC50 values.
Lyophilised gastric vesicles were prepared from pig fundic mucosa after the method of Keeling et. al. (Biochem. Pharmacol, 34, 2967, 1985).
K^+ -stimulated ATPAse activity was determined at 37° C. in the presence of the following: 10 mM Pipes/Tris buffer pH 7.0, 2 mM MgSO4, 1 mM KCl, 2 mM Na2 ATP and […] lyophilised gastric vesicles. After incubation for 30 minutes, the inorganic phosphate hydrolysed from ATP was determined by the method of Yoda and Hokin (Biochem. Biophys, Res. Commun. 40, 880, 1970).
Compounds of structure (I) were dissolved in dimethylsulphoxide which up to the highest concentration used had no effect on K^+ -stimulated ATPase activity.
The effect of the highest concentration of each compound of structure (I) on the recovery of a standard amount of inorganic phosphate was also determined.

T1 sequence (P19156 2-1034 limits assumed): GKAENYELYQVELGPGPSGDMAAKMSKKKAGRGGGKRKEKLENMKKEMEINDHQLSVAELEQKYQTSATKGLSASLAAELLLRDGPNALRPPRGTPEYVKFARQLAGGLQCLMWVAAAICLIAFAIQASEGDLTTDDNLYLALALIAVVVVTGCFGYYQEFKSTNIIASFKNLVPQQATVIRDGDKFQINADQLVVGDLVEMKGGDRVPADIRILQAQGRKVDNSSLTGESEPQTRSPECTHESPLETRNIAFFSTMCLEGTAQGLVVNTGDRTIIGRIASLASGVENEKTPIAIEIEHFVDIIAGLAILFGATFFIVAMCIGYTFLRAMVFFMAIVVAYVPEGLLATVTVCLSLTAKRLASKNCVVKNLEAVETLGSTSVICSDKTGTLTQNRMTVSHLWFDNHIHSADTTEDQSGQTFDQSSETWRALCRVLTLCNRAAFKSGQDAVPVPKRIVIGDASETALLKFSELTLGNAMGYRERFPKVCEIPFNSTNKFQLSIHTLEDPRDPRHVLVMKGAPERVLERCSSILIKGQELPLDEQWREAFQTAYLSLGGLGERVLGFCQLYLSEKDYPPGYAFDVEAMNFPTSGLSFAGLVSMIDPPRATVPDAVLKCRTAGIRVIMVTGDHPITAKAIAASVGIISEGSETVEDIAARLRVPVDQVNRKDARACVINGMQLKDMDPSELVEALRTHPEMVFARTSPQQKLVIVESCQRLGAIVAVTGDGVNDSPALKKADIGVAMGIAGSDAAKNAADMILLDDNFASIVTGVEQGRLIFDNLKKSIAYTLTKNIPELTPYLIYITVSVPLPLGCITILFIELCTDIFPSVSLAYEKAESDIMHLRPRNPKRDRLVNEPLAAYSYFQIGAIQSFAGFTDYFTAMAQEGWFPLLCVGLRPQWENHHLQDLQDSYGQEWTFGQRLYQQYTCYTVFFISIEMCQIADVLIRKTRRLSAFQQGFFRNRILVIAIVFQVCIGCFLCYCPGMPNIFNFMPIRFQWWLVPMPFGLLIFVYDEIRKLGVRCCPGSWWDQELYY
T1 sequence (P18434 whole entry partner): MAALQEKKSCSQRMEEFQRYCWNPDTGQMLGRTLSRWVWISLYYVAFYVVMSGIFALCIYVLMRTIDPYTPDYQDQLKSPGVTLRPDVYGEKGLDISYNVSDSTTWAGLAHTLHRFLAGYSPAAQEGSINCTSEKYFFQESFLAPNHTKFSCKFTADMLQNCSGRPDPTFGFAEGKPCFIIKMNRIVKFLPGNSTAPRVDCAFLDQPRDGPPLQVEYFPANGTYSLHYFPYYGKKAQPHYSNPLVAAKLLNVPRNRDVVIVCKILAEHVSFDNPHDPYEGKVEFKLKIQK

| pIC50 | Structure (SMILES) |
| --- | --- |
| 7.10 | CCOC(=O)c1cnc2c(OC)cccc2c1Nc1ccc(O)cc1C [Compound 9, Ethyl 8-methoxy-4-(4-hydroxy-2-methylphenylamino)-quinoline-3-carboxylate] |
| 6.80 | COc1cccc2c(Nc3ccc(O)cc3C)c(C(=O)C(C)C)cnc12 [Compound 12, 3-isobutyryl-4-(4-hydroxy-2-methylphenylamino)-8-methoxyquinoline] |
| 7.15 | CCCC(=O)c1cnc2ccc(O)cc2c1Nc1ccc(O)cc1C [Compound 16, 3-butyryl-4-(4-hydroxy-2-methylphenylamino)-6-hydroxyquinoline] |
| 5.89 | CCCC(=O)c1cnc2c(OC)cc(O)cc2c1Nc1ccc(O)cc1C [Compound 17, 3-butyryl-4-(4-hydroxy-2-methylphenylamino)-6-hydroxy-8-methoxyquinoline] |
